According to paper PMC6372667 (Experimental & Molecular Medicine, 2019):

Tests used:
Electric eel AChE = molecular target: T1, Electric eel AChE (Electrophorus electricus, UniProt O42275); assay: In vitro cholinesterase enzyme assay (Ellman), AChE; type: biochemical
T1 construct: purchased Sigma-Aldrich Co
From the text: BACE1 (human recombinant β-secretase) ([…]) and the BACE1 FRET (fluorescence resonance energy transfer) assay kit Red were purchased from ThermoFisher Scientific (P2985; Waltham, MA, USA). […] For the cell culture experiment, Dulbecco’s modified Eagle’s medium (DMEM), Opti-MEM, fetal bovine serum (FBS), and penicillin/streptomycin were obtained from Capricorn Scientific (Ebsdorfergrund, Germany). β-secretase inhibitor III (β-SI) was purchased from Calbiochem (Darmstadt, Germany). The protease inhibitor mixture (a mixture of AEBSF, pepstatin A, E-64, bestain, leupeptin, and aprotinin) was purchased from Sigma-Aldrich (St. Louis, MO, USA). Enzyme-linked immunosorbent assay (ELISA) kits for Aβ40 and Aβ42 were obtained from IBL (Kunma, Japan). All chemicals and solvents used were reagent grade, purchased from commercial sources, and used as received.
The inhibitory activities of pterosin derivatives against cholinesterases were measured using the method developed by Ellman et al.[32]. The reaction mixture contained 140 μL of sodium phosphate buffer (pH 8.0), 20 μL of test sample solution (final concentration of the compound 100 μM), and 20 μL of AChE or BChE solution, mixed and incubated for 15 min at room temperature. […] The reactions were initiated following the addition of 10 μL of DTNB and 10 μL of acetyl thiocholine iodide for the AChE assay or butyryl thiocholine chloride for the BChE assay in 96-well microplates, which were incubated for 15 min.

BACE1 = details: cited from earlier work
[1] = pharmacokinetic descriptor of the brain ref 53; cited from earlier work
dementia animal models = details: 5 mg/kg i.p. ref 53; cited from earlier work
PAMPA-BBB, literature = type: in vitro ADME; details: from log BB = 0.612 × log Pe + 3.206 (ref 49)

T1 sequence (O42275 24-633): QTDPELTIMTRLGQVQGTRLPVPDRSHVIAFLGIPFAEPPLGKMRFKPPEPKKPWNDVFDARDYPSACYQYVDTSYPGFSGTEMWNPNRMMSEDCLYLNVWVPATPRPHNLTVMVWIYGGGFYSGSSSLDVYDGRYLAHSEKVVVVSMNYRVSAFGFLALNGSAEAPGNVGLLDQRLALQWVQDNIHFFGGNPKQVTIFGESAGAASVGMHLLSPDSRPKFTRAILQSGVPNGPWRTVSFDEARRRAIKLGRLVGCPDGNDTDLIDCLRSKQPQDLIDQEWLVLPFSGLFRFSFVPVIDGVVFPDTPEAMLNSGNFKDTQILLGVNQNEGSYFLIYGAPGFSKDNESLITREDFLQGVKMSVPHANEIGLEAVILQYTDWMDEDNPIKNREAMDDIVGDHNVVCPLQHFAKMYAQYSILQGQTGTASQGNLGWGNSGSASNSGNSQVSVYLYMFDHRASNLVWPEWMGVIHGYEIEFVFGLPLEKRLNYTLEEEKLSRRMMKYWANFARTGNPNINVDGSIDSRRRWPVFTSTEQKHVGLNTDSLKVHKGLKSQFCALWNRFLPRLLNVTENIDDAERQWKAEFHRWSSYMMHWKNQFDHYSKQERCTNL

COc1ccc2cc3[n+](cc2c1OC)CCc1cc2c(cc1-3)OCO2 [Berberine, berberine]
IC50 (Electric eel AChE): 390 ± 10 nM | BACE1-inhibitory activity (BACE1): lacks | log BB [1]: −0.35 | Cognitive effect (dementia animal models): procognitive and antiamnestic properties | log Pe corresponding to log BB (PAMPA-BBB, literature): −5.8
